# Laboratory results as given in publication PMC6920794, “Evaluation of Novel Chalcone-Thiosemicarbazones Derivatives as Potential Anti-Leishmania amazonensis Agents and Its HSA Binding Studies” (Biomolecules, 2019).
# Legend:
# [1] = constant of substituent 4-X; cited from earlier work
# [2] = tested on: L. amazonensis promastigotes; assay: Promastigote assay (MTT); assay type: cell-based, Leishmania amazonensis; settings: Leishmania amazonensis, after 48 h of culture (table title)
# Experimental: Leishmania amazonensis (MHOM/BR/77/LTB0016) were regularly isolated from infected mice and maintained in culture as promastigotes through weekly passages in Schneider’s medium (Sigma Aldrich, St. Louis, MO, USA) supplemented with 10% (v/v) heat-inactivated fetal calf serum, penicillin (100 UI/mL), and streptomycin (100 µg/mL) at 299K. Parasites were maintained until the 10th passage. The Animal Ethics Committee of the Oswaldo Cruz Foundation (license number L026/2015) approved this study.
# Promastigotes of L. amazonensis (1 × 10^6 promastigotes/mL) in the 4th day on culture in the conditions described above were incubated with the chalcones serially diluted in culture medium (0.032% v/v DMSO at the highest concentration tested) on a 96-well cell culture plate (TPP™ test plate, Switzerland). The assayed concentrations ranged from 50 to 1.56 µM for all chalcone-thiosemicarbazones (5a–g) and for pentamidine (Sigma Aldrich, St. Louis, MO, USA). […] All compounds were analyzed in at least three experiments performed in triplicate. Pentamidine was used as the reference drug and diluted in the same concentrations used for 5a–g. The vehicle (DMSO) had no effect on the parasites.
# The antileishmanial activity was evaluated by adding 22 µL of 3-(4,5-dimethylthiazol-2-yl)-2-5diphenyltetrazolium bromide (MTT) at 5 mg/mL (Sigma Aldrich, St. Louis, MO, USA) to each well. After 2 h, 80 µL of DMSO was added and the optical density was determined at a wavelength of 570 nm in a microplate reader (µQuant Bio-Tek Instruments®, Winooski). The assays were carried out in triplicate in 96-well plates (Costar, New York, USA). The inhibition percentage was estimated by the comparison with the non-treated control. The values for the inhibitory concentration for 50% of the promastigotes (IC50) were calculated by a sigmoidal model.
# [3] = tested on: L. amazonensis intracellular amastigotes; assay: Intracellular amastigotes assay in infected macrophages; assay type: cell-based, Leishmania amazonensis
# Experimental: Peritoneal macrophages were obtained BALB/c mice with cold Roswell Park Memorial Institute (RPMI) 1640 medium (Sigma Aldrich, St. Louis, MO, USA) supplemented as above. The cell suspension was adjusted to 1 × 10^6 macrophage/mL and incubated in a LAB-TEK 8-chamber slide (Nunc, Roskilde, Denmark) at 310K and 5% CO2 for 1 h. Non-adherent cells were removed and stationary-phase L. amazonensis promastigotes were added at a 3:1 parasite/macrophage ratio. The cultures were incubated for a further 4 h, and free parasites were removed. The chambers were washed, and the monolayers were incubated with the compounds for 48 h. Infected macrophages incubated only in the culture medium were used as controls to compare with the infected treated macrophages. […] The cultures were fixed in methanol and stained with the hematological system Instant Prov (Newprov®, Curitiba, Brazil). The slides were examined by light microscopy, and the number of infected macrophages and the mean number of parasites per macrophage were determined in 100 cells counted. The experiments were performed twice in triplicate. The percentage of infected macrophages was calculated by dividing the number of infected macrophages by the total number of macrophages (infected and uninfected) counted on the slides, multiplied by 100. To determine the infection index, the percentage of infected macrophages was multiplied by the mean number of parasites per macrophage. The percentage inhibition of infection was calculated by multiplying the difference between the infection index of the control and the compound by 100 and dividing by the infection index (IF) of the control using the Equation (1):IF = % infected cells × amastigotes number/total number of macrophages(1) The IC50 ± SD (SD: standard deviation) values were obtained by a sigmoidal model using Origin 6.0 with statistical error limits up to 10%. All tests were conducted in duplicate for each concentration, and two independent assays were performed.
# [4] = tested on: murine peritoneal macrophages; assay: Macrophage cytotoxicity (resazurin); assay type: cell-based; settings: BALB/c, mouse, 48 h, pH 7.2
# Experimental: Peritoneal macrophages from albino laboratory-bred strain (BALB/c) mice were obtained in RPMI 1640 medium at pH 7.2 (Gibco, New York, NY, USA) supplemented with 10% (v/v) heat-inactivated fetal bovine serum, 100 U/mL penicillin and 0.1 mg/mL of streptomycin and distributed (1 × 10^6 macrophages/well) in triplicate in 96-well plates (Falcon Co., Franklin Lakes, USA) and incubated for 1 h in a 5% CO2 atmosphere incubator at 310K. The supernatant was removed, and the compounds were added to the plate at concentrations from 10 µM to 50 µM. Next, the cultures were incubated for 48 h in a CO2 incubator at 310K. After incubation, the supernatant was removed and a resazurin solution (50 µM) was added to each well and incubated at 310K for 4 h. Furthermore, the fluorescence was measured using a wavelength of 560 nm for excitation and 590 nm for detection (Molecular Devices, Silicon Valley, USA). Results were expressed as the percentage of viable cells compared to the control cells treated with the highest DMSO dose used to dissolve the drugs. The 50% cytotoxic concentration (CC50) was calculated using GraphPad Prism 6.0 software (GraphPad Company, San Diego, CA, USA).
structure (smiles),measurement,setting,value
"NC(=S)N/N=C(\C=C\c1ccc(Cl)cc1)c1ccccc1 [Compound 5e, (1E,2E)-3-(4′-chlorophenyl)-1-phenylprop-2-en-1-one thiosemicarbazone]",Hammett constant σp,[1],0.34
same,Hansh constant π (lipophilicity),[1],0.71
same,Taft constant Es,[1],−0.97
same,molecular refractivity MR,[1],0.60
same,IC50,[2],5.22 ± 0.75 µM
same,IC50,"[3]; Leishmania amazonensis, Peritoneal macrophage, in Mus musculus, 48 h, L. amazonensis-infected murine peritoneal macrophages, 48 h of culture",4.47 ± 0.42 µM
same,Selectivity Index (SI),[3]; SI = LD50/IC50 intracellular amastigotes,7.27
same,Macrophages LD50,[4],32.48 ± 1.81 µM
